Laboratory results as given in US9242941B2, “Alkyl, fluoroalkyl-1,4-benzodiazepinone compounds” (BRISTOL-MYERS SQUIBB COMPANY, priority 2012, dated 2016).

Legend:
[1] = human metabolic stability half-life assay; conditions: microsomes, human liver microsomes
Description: Metabolic Stability Half-Life Panel
Incubation with Liver Microsomes

human Notch 3 = test: Notch-CBF1 Transactivation Assay (Notch 3); assay type: cell-based; conditions: read-out: Notch 3 IC50; Notch-CBF1 transactivation luciferase assay in transfected HeLa cells; some values are an average of N experiments
Source text: (§1) Notch-CBF1 Transactivation Assay
(§2) The Notch-CBF1 (C-promoter binding factor I) cell based transactivation assay is based on the ability of the released Notch intracellular domain fragments (NICDs) to function as transcription factors in conjunction with CBF1 and other nuclear factors. Luciferase assays were used to measure the antagonism of Notch-CBF1 transcriptional activity. HeLa cervical cancer cells are transiently co-transfected with pCDNA3.1/Hygro plasmids containing truncated Notch 1, Notch 2, Notch 3, or Notch 4 receptors and a PGL3 luciferase reporter vector containing 4 copies of CBF1 binding site. The cells were then tested for Notch-CBF1 activity in the absence or presence of test compounds. HeLa cells, maintained in DMEM (high glucose with HEPES), 1× glutamine/penicillin/streptomycin and 10% Fetal Bovine serum, were transiently transfected in a T175 Flask (4.5×10^6 cells/flask) using the Monster Transfection Kit (Minis #MIR2906) according to manufacturers specifications. Table 13 denotes respective DNA quantity for the transfections.
(§3) Assay media (5 μL) containing test compounds in final concentrations ranging from 5 μM to 8.4×10^−5 μM (3 fold serial dilutions) were added to the cells and the cell plates were then incubated for 18 hours at 37° C. and 5% CO2. Control wells contained DMSO vehicle (total counts) or 0.5 μM of an in-house small molecule inhibitor (background counts). Duplicates were used for each sample. Luciferase activity was measured after a 20-minute incubation with 50 μl STEADY-GLO® luciferase reagents according to manufacturer's specifications (Promega, Cat. #E2550) and analyzed by Envision plate reader (PerkinElmer, Boston, Mass.).
(§4) The antagonist effect of compounds was expressed as 100×[1−(average sample−average background)/(average total−average background)] where sample is the luciferase activity in the presence of test compound, background is equal to the luciferase activity in the presence of the small molecule inhibitor control and the total is signal induced in DMSO wells.

human Notch 1 = test: Notch-CBF1 Transactivation Assay (Notch 1); assay type: cell-based; conditions: read-out: Notch 1 IC50; Notch-CBF1 transactivation luciferase assay in transfected HeLa cells; some values are an average of N experiments
Source text: as §1, §2, §3, §4

[2] = pH 7.4, CYP-mediated metabolic stability half life, NADPH-dependent
[3] = pH 7.4, HLM (t1/2, min), CYP-mediated (NADPH-dependent), 0.5 μM compound, 45 min time course, some values are an average of N experiments

| Compound | half-life at 0.5 µM [1, 2] | IC50 (human Notch 3) | IC50 (human Notch 1) | half-life at 0.5 µM [1, 3] |
| --- | --- | --- | --- | --- |
| C=CC[C@H](C(N)=O)[C@@H](CC(C)C)C(=O)N[C@H]1N=C(c2ccccc2)c2cc(Cl)ccc2N(C)C1=O [Comparative Compound 57, reference compound] | ≤ 9 min | – | – | – |
| CCCC[C@H](C(N)=O)[C@@H](CC(C)C)C(=O)N[C@H]1N=C(c2ccc(Cl)cc2)c2ccccc2N(C)C1=O [Comparative Compound 58, reference compound] | ≤ 9 min | – | – | – |
| C=CC[C@H](C(N)=O)[C@@H](CC(C)C)C(=O)N[C@H]1N=C(c2ccccc2)c2ccccc2N(CCC)C1=O [Comparative Compound 59, reference compound] | ≤ 9 min | – | – | – |
| COc1cccc2c1NC(=O)[C@@H](NC(=O)[C@H](CCC(F)(F)F)[C@H](CC1CC1)C(N)=O)N=C2c1cccc(C(F)(F)F)c1 [Example 2, (2R,3S)-3-(Cyclopropylmethyl)-N-((3S)-9-methoxy-2-oxo-5-(3-(trifluoromethyl)phenyl)-2,3-dihydro-1H-1,4-benzodiazepin-3-yl)-2-(3,3,3-trifluoropropyl)succinamide] | ≥ 30 min | 1.5 nM | 1.7 nM | 46 min |
| Cc1cc(F)cc(C2=N[C@H](NC(=O)[C@H](CCC(F)(F)F)[C@H](CC3CC3)C(N)=O)C(=O)Nc3c(Cl)cccc32)c1 [Example 3, (2R,3S)—N-((3S)-9-Chloro-5-(3-fluoro-5-methylphenyl)-2-oxo-2,3-dihydro-1H-benzo[e][1,4]diazepin-3-yl)-3-(cyclopropylmethyl)-2-(3,3,3-trifluoropropyl)succinamide] | ≥ 30 min | 7.5 nM | 5.1 nM | 77 min |
| COc1cccc2c1NC(=O)[C@@H](NC(=O)[C@H](CCC(F)(F)F)[C@H](CC1CC1)C(N)=O)N=C2c1cccc(F)c1 [Example 4, (2R,3S)-3-(Cyclopropylmethyl)-N-((3S)-5-(3-fluorophenyl)-9-methoxy-2-oxo-2,3-dihydro-1H-1,4-benzodiazepin-3-yl)-2-(3,3,3-trifluoropropyl)succinamide] | ≥ 30 min | 8.1 nM | 4.2 nM | 83 min |
| NC(=O)[C@@H](CC1CC1)[C@@H](CCC(F)(F)F)C(=O)N[C@H]1N=C(c2cccc(F)c2)c2cccc(OC3CC3)c2NC1=O [Example 5, (2R,3S)-3-(Cyclopropylmethyl)-N-((3S)-9-(cyclopropyloxy)-5-(3-fluorophenyl)-2-oxo-2,3-dihydro-1H-1,4-benzodiazepin-3-yl)-2-(3,3,3-trifluoropropyl)succinamide] | ≥ 30 min | 8.9 nM | 5.1 nM | 74 min |
| NC(=O)[C@@H](CC1CC1)[C@@H](CCC(F)(F)F)C(=O)N[C@H]1N=C(c2ccccc2)c2cccc(OC3CC3)c2NC1=O [Example 6, (2R,3S)-3-(Cyclopropylmethyl)-N-((3S)-9-(cyclopropyloxy)-2-oxo-5-phenyl-2,3-dihydro-1H-1,4-benzodiazepin-3-yl)-2-(3,3,3-trifluoropropyl)succinamide] | ≥ 30 min | 8.6 nM | 7.2 nM | 83 min |
| NC(=O)[C@@H](CC1CC1)[C@@H](CCC(F)(F)F)C(=O)N[C@H]1N=C(c2ccc(Cl)cc2)c2cccc(C3CC3)c2NC1=O [Example 7, (2R,3S)—N-((3S)-5-(4-Chlorophenyl)-9-cyclopropyl-2-oxo-2,3-dihydro-1H-1,4-benzodiazepin-3-yl)-3-(cyclopropylmethyl)-2-(3,3,3-trifluoropropyl)succinamide] | ≥ 30 min | 3.3 nM | 2 nM | 97 min |
| Cc1cccc(C2=N[C@H](NC(=O)[C@H](CCC(F)(F)F)[C@H](CC3CC3)C(N)=O)C(=O)Nc3c(O)cccc32)c1 [Example 8, (2R,3S)-3-(Cyclopropylmethyl)-N-((3S)-9-hydroxy-5-(3-methylphenyl)-2-oxo-2,3-dihydro-1H-1,4-benzodiazepin-3-yl)-2-(3,3,3-trifluoropropyl)succinamide] | ≥ 30 min | 15.7 nM | 5.6 nM | 37 min |
| Cc1cccc2c1NC(=O)[C@@H](NC(=O)[C@H](CCC(F)(F)F)[C@H](CC1CC1)C(N)=O)N=C2c1cccc(C(F)(F)F)c1 [Example 9, (2R,3S)-3-(Cyclopropylmethyl)-N-((3S)-9-methyl-2-oxo-5-(3-(trifluoromethyl)phenyl)-2,3-dihydro-1H-1,4-benzodiazepin-3-yl)-2-(3,3,3-trifluoropropyl)succinamide] | ≥ 30 min | 4.9 nM | 1.8 nM | 90 min |
| Cc1cccc2c1NC(=O)[C@@H](NC(=O)[C@H](CCC(F)(F)F)[C@H](CC1CC1)C(N)=O)N=C2c1ccccc1 [Example 11, (2R,3S)-3-(Cyclopropylmethyl)-N-((3S)-9-methyl-2-oxo-5-phenyl-2,3-dihydro-1H-1,4-benzodiazepin-3-yl)-2-(3,3,3-trifluoropropyl)succinamide] | ≥ 30 min | 8.7 nM | 4 nM | 76 min |
| Cc1cccc2c1NC(=O)[C@@H](NC(=O)[C@H](CCC(F)(F)F)[C@H](CC1CC1)C(N)=O)N=C2c1ccc(F)cc1 [Example 12, (2R,3S)-3-(Cyclopropylmethyl)-N-((3S)-5-(4-fluorophenyl)-9-methyl-2-oxo-2,3-dihydro-1H-1,4-benzodiazepin-3-yl)-2-(3,3,3-trifluoropropyl)succinamide] | ≥ 30 min | 28.3 nM | 6.9 nM | 104 min |
| Cc1ccccc1C1=N[C@H](NC(=O)[C@H](CCC(F)(F)F)[C@H](CC2CC2)C(N)=O)C(=O)Nc2c(Cl)cccc21 [Example 13, (2R,3S)—N-((3S)-9-Chloro-5-(2-methylphenyl)-2-oxo-2,3-dihydro-1H-1,4-benzodiazepin-3-yl)-3-(cyclopropylmethyl)-2-(3,3,3-trifluoropropyl)succinamide] | ≥ 30 min | 5.1 nM | 2.9 nM | > 120 min |
| NC(=O)[C@@H](CC1CC1)[C@@H](CCC(F)(F)F)C(=O)N[C@H]1N=C(c2ccccc2)c2cccc(C3CC3)c2NC1=O [Example 14, (2R,3S)-3-(Cyclopropylmethyl)-N-(9-cyclopropyl-2-oxo-5-phenyl-2,3-dihydro-1H-1,4-benzodiazepin-3-yl)-2-(3,3,3-trifluoropropyl)succinamide] | ≥ 30 min | 5.1 nM | 4.3 nM | 41 min |
| CCC[C@H](C(N)=O)[C@@H](CCC(F)(F)F)C(=O)N[C@H]1N=C(c2ccccc2)c2cccc(C)c2NC1=O [Example 15, (2R,3S)—N-((3S)-9-Methyl-2-oxo-5-phenyl-2,3-dihydro-1H-1,4-benzodiazepin-3-yl)-3-propyl-2-(3,3,3-trifluoropropyl)succinamide] | ≥ 30 min | 9.3 nM | 12.7 nM | 40 min |
| Cc1ccc(C2=N[C@H](NC(=O)[C@H](CCC(F)(F)F)[C@H](CC3CC3)C(N)=O)C(=O)Nc3c(F)cccc32)cc1 [Example 16, (2R,3S)-3-(Cyclopropylmethyl)-N-((3S)-9-fluoro-5-(4-methylphenyl)-2-oxo-2,3-dihydro-1H-1,4-benzodiazepin-3-yl)-2-(3,3,3-trifluoropropyl)succinamide] | ≥ 30 min | 16 nM | 3.8 nM | 75 min |
